Experimental data published in publication PMC7435673, “Synthesis of α-Aminophosphonic Acid Derivatives Through the Addition of O- and S-Nucleophiles to 2H-Azirines and Their Antiproliferative Effect on A549 Human Lung Adenocarcinoma Cells” (Molecules, 2020).
Read-outs that look alike come from different tables or passages of the source.

Key:
[1] = system: human cancer cell line A549 (carcinomic human alveolar basal epithelial cells); experiment: Cytotoxicity (antiproliferative) CCK-8 assay, A549; details: for IC50: read-out: Cytotoxicity IC50 Lung A549; for toxicity toward A549 (in words): in vitro, CCK-8
Excerpt: (§1) The cytotoxicity of the new α-aminophosphine oxide and phosphonate acetals 4 and 5, β-keto-α-aminophosphonate 6, aziridines 7, 10 and 14, and allylic α-aminophosphine oxides and phosphonates 8, 9, 11, 12, 15 and 16 was investigated in vitro by checking their antiproliferative activities against the human cancer cell line A549 (carcinomic human alveolar basal epithelial cells). […] In order to assess growth inhibition, cell counting kit (CCK-8) assay was employed. […] Likewise, healthy lung cells, such as MRC-5 non-malignant lung fibroblasts were tested to study the selectivity of the cytotoxicity [49].
(§2) All stock solutions of the investigated compounds were prepared by dissolving the powered materials in appropriate amounts of DMSO. The final concentration of DMSO never exceeded 5% (v/v) in reactions. The stock solution was stored at 5 °C until it was used.
(§3) Cells were cultured according to the supplier’s instructions. […] On day 2, compounds were added and samples were incubated for 48 h. […] The absorbance of each well was determined by an Automatic ELISA Reader System (Multiskan FC, Thermo Fisher Scientific, Waltham, MA, USA) at 450 nm wavelength.

in vitro = details: human
Excerpt: as §1, §2, §3

[2] = system: Human colon carcinoma cell line (RKO); experiment: Cytotoxicity (antiproliferative) CCK-8 assay, RKO; details: for IC50: Homo sapiens, Colon carcinoma cell, 48 h, read-out: cytotoxicity value against human colon carcinoma cell line (RKO); for toxicity toward RKO (in words): in vitro, CCK-8
Description: Human colon carcinoma cell line (RKO) was also used to test the antiproliferative activity of some of our compounds. In order to assess growth inhibition, cell counting kit (CCK-8) assay was employed.
as §2
Cells were cultured according to the supplier’s instructions. Cells were seeded in 96-well plates at a density of 2–4 × 10^3 cells per well and incubated overnight in 0.1 mL of media supplied with 10% Fetal Bovine Serum (Lonza) in 5% CO2 incubator at 37 °C. On day 2, compounds were added and samples were incubated for 48 h. After treatment, 10 μL of cell counting kit-8 was added into each well for additional 2 h incubation at 37 °C. The absorbance of each well was determined by an Automatic ELISA Reader System (Multiskan FC, Thermo Fisher Scientific, Waltham, MA, USA) at 450 nm wavelength.

[3] = system: MRC-5 non-malignant lung fibroblasts; experiment: Cytotoxicity CCK-8 assay, MRC-5 (selectivity); details: in vitro, CCK-8
Excerpt: as §1, §2, §3

[4] = Cytotoxicity CCK-8 assay, MRC-5 (selectivity); details: human, MRC-5 non-malignant lung fibroblasts
Excerpt: as §1, §2, §3

[5] = CCK-8, 48 h incubation, concentration corresponding to 50% growth inhibition

Row | melting point [°C] | Compound | IC50 ([1]; Homo sapiens, A549, 48 h) [µM] | IC50 at 48 h [4] [µM] | also measured
1 | – | O=P(c1ccccc1)(c1ccccc1)[C@@H]1N[C@]1(Sc1ccccc1)c1ccccc1 (relative stereo) [Compound 14c, Diphenyl [(2S*,3S*)-3-phenyl-3-(phenylthio)aziridin-2-yl]phosphine oxide] | 1.1 ± 0.32 | – | IC50 [2]: 9.7 µM; toxicity toward MRC-5 cell line (in words) [3]: good cytotoxicity; IC50 at 48 h (in vitro): 4.9 ± 0.49 µM
2 | 125 to 127 | COC(C)(OC)C(N)P(=O)(c1ccccc1)c1ccccc1 (centres unmarked) [Compound 4a, (1-Amino-2,2-dimethoxypropyl) diphenylphosphine oxide] | 4.4 ± 0.72 | > 50 | IC50 [2]: > 50 µM; toxicity toward RKO (in words) [2]: do not exhibited any toxicity
3 | 96 to 97 | CCC(OC)(OC)C(N)P(=O)(c1ccccc1)c1ccccc1 (centres unmarked) [Compound 4b, (1-Amino-2,2-dimethoxybutyl)diphenylphosphine oxide] | 21.3 ± 0.22 | > 50 | –
4 | 113 to 115 | COC(OC)(c1ccccc1)C(N)P(=O)(c1ccccc1)c1ccccc1 (centres unmarked) [Compound 4c, (1-Amino-2,2-dimethoxy-2-phenylethyl)diphenylphosphine oxide] | 16.1 ± 2.03 | > 50 | –
5 | 126 to 128 | CCOC(C)(OCC)C(N)P(=O)(c1ccccc1)c1ccccc1 (centres unmarked) [Compound 4d, (1-Amino-2,2-diethoxypropyl)diphenylphosphine oxide] | 9.6 ± 1.13 | > 50 | –
6 | – | COC(C)(OC)C(N)P(=O)(OC(C)C)OC(C)C (centres unmarked) [Compound 4e, Diisopropyl (1-amino-2,2-dimethoxypropyl)phosphonate] | – | – | IC50 [1, 5]: 4.6 ± 0.31 µM
7 | – | CCOP(=O)(OCC)C(N)C(C)(OC)OC (centres unmarked) [Compound 4f, Diethyl (1-amino-2,2-dimethoxypropyl)phosphonate] | – | – | IC50 [1, 5]: 1.3 ± 0.1 µM
8 | 205 to 207 | COC(C)(OC)C(NS(=O)(=O)c1ccc(C)cc1)P(=O)(c1ccccc1)c1ccccc1 (centres unmarked) [Compound 5a, N-[1-(Diphenylphosphoryl)-2,2-dimethoxypropyl]-4-methylbenzenesulfonamide] | 8.2 ± 0.23 | > 50 | –
9 | – | COC(C)(OC)C(NS(=O)(=O)c1ccc(C)cc1)P(=O)(OC(C)C)OC(C)C (centres unmarked) [Compound 5b, Diisopropyl [2,2-dimethoxy-1-((4-methylphenyl)sulfonamido)propyl]phosphonate] | 1.7 ± 0.3 | > 50 | –
10 | – | CCOP(=O)(OCC)C(NS(=O)(=O)c1ccc(C)cc1)C(C)(OC)OC (centres unmarked) [Compound 5c, Diethyl [2,2-dimethoxy-1-((4-methylphenyl)sulfonamido)propyl]phosphonate] | 4.5 ± 0.45 | – | IC50 (in vitro): > 50 µM
11 | – | CCOC(C)(OCC)C(NS(=O)(=O)c1ccc(C)cc1)P(=O)(OCC)OCC (centres unmarked) [Compound 5d, Diethyl [2,2-diethoxy-1-((4-methylphenyl)sulfonamido)propyl]phosphonate] | 3.7 ± 0.49 | – | IC50 (in vitro): > 50 µM
12 | 121 to 122 | CC(=O)C(NS(=O)(=O)c1ccc(C)cc1)P(=O)(OC(C)C)OC(C)C (centres unmarked) [Compound 6, Diisopropyl [1-((4-methylphenyl)sulfonamido)-2-oxopropyl]phosphonate] | > 50 | – | toxicity toward A549 (in words) [1]: do not exhibited any toxicity
13 | – | C=C(OCC(F)(F)F)C(N)P(=O)(c1ccccc1)c1ccccc1 (centres unmarked) [Compound 8, [1-Amino-2-(2,2,2-trifluoroethoxy)allyl]diphenylphosphine oxide] | > 50 | > 50 | toxicity toward A549 (in words) [1]: do not exhibited any toxicity effect
14 | 201 to 203 | C=C(OCC(F)(F)F)C(NS(=O)(=O)c1ccc(C)cc1)P(=O)(c1ccccc1)c1ccccc1 (centres unmarked) [Compound 9, N-[1-(Diphenylphosphoryl)-2-(2,2,2-trifluoroethoxy)allyl]-4-methylbenzenesulfonamide] | 3.5 ± 0.77 | > 50 | –
15 | – | C=C(Oc1ccccc1)C(N)P(=O)(c1ccccc1)c1ccccc1 (centres unmarked) [Compound 11a, (1-Amino-2-phenoxyallyl)diphenylphosphine oxide] | 1.9 ± 0.13 | > 50 | IC50 [2]: > 50 µM; toxicity toward RKO (in words) [2]: do not exhibited any toxicity
16 | – | C=C(Oc1ccc2ccccc2c1)C(N)P(=O)(c1ccccc1)c1ccccc1 (centres unmarked) [Compound 11b, [1-Amino-2-(naphyhalen-2-yloxy)allyl]diphenylphosphine oxide] | 2.7 ± 0.44 | 33.6 ± 3.73 | –
17 | – | C=C(Sc1ccccc1)C(N)P(=O)(c1ccccc1)c1ccccc1 (centres unmarked) [Compound 15a, [1-Amino-2-(phenylthio)allyl]diphenylphosphine oxide] | 2.6 ± 0.68 | 15.9 ± 2.79 | IC50 [2]: > 50 µM; toxicity toward RKO (in words) [2]: do not exhibited any toxicity
18 | – | C=C(Sc1ccc(C)cc1)C(N)P(=O)(c1ccccc1)c1ccccc1 (centres unmarked) [Compound 15b, [1-Amino-2-(p-tolylthio)allyl]diphenylphosphine oxide] | 5.1 ± 0.77 | 14.9 ± 1.61 | –
19 | – | C=C(Sc1ccc(F)cc1)C(N)P(=O)(c1ccccc1)c1ccccc1 (centres unmarked) [Compound 15c, [1-Amino-2-((4-fluorophenyl)thio)allyl]diphenylphosphine oxide] | 0.1 ± 0.08 | > 50 | IC50 [2]: > 50 µM; toxicity toward RKO (in words) [2]: do not exhibited any toxicity
20 | – | C=C(Sc1ccc(OC)cc1)C(N)P(=O)(c1ccccc1)c1ccccc1 (centres unmarked) [Compound 15d, [1-Amino-2-((4-methoxyphenyl)thio)allyl]diphenylphosphine oxide] | 2.6 ± 0.42 | > 50 | –
21 | – | C=C(Sc1ccccc1)C(N)P(=O)(OCC)OCC (centres unmarked) [Compound 15e, Diethyl [1-amino-2-(phenylthio)allyl]phosphonate] | – | – | IC50 [1, 5]: 7.2 ± 0.49 µM
22 | 199 to 201 | C=C(Sc1ccccc1)C(NS(=O)(=O)c1ccc(C)cc1)P(=O)(c1ccccc1)c1ccccc1 (centres unmarked) [Compound 16a, N-[1-(Diphenylphosphoryl)-2-(phenylthio)allyl]-4-methylbenzenesulfonamide] | 1.2 ± 0.09 | > 50 | –
23 | 180 to 182 | C=C(Sc1ccc(C)cc1)C(NS(=O)(=O)c1ccc(C)cc1)P(=O)(c1ccccc1)c1ccccc1 (centres unmarked) [Compound 16b, N-[1-(Diphenylphosphoryl)-2-(p-tolylthio)allyl]-4-methylbenzene-sulfonamide] | 2.1 ± 0.15 | > 50 | –

Row | Compound | melting point [°C] | IC50 ([1]; Homo sapiens, A549, 48 h) [µM] | IC50 at 48 h [4] [µM] | also measured
24 | C[C@@]1(OCC(F)(F)F)N[C@H]1P(=O)(c1ccccc1)c1ccccc1 (relative stereo) [Compound 7, [(2S*,3S*)-3-Methyl-3-(2,2,2-trifluoroethoxy)aziridin-2-yl]diphenylphosphine oxide] | 98 to 100 | 3.6 ± 0.7 | – | IC50 at 48 h (in vitro): > 50 µM
25 | C[C@@]1(Oc2ccccc2)N[C@H]1P(=O)(c1ccccc1)c1ccccc1 (relative stereo) [Compound 10a, [(2S*,3S*)-3-Methyl-3-phenoxyaziridin-2-yl]diphenylphosphine oxide] | 124 to 126 | 13.3 ± 1.69 | – | IC50 at 48 h (in vitro): > 50 µM
26 | C=C(Oc1ccccc1)C(NS(=O)(=O)c1ccc(C)cc1)P(=O)(OCC)OCC (centres unmarked) [Compound 12a, Diethyl [1-((4-methylphenyl)sulfonamido)-2-phenoxyallyl]phosphonate] | 117 to 119 | 4.8 ± 0.9 | – | IC50 (in vitro): > 50 µM
27 | C=C(Oc1ccc2ccccc2c1)C(NS(=O)(=O)c1ccc(C)cc1)P(=O)(OCC)OCC (centres unmarked) [Compound 12b, Diethyl [1-((4-methylphenyl)sulfonamido)-2-(naphthalen-2-yloxy)allyl]-phosphonate] | 147 to 149 | 2.1 ± 0.22 | – | IC50 (in vitro): 17.5 ± 1.47 µM
28 | C=C(Sc1ccccc1)C(NS(=O)(=O)c1ccc(C)cc1)P(=O)(OCC)OCC (centres unmarked) [Compound 16c, Diethyl [1-((4-methylphenyl)sulfonamido)-2-(phenylthio)allyl]phosphonate] | 99 to 101 | 0.2 ± 0.07 | – | IC50 [2]: > 50 µM; toxicity toward RKO (in words) [2]: do not exhibited any toxicity; IC50 (in vitro): 24.1 ± 3.55 µM
29 | C=C(Sc1ccc(F)cc1)C(NS(=O)(=O)c1ccc(C)cc1)P(=O)(OCC)OCC (centres unmarked) [Compound 16d, Diethyl [2-((4-fluorophenyl)thio)-1-((4-methylphenyl)sulfonamido)-allyl]-phosphonate] | 117 to 119 | 3 ± 0.98 | – | IC50 (in vitro): > 50 µM
30 | C=C(Sc1ccc(C)cc1)C(NS(=O)(=O)c1ccc(C)cc1)P(=O)(OCC)OCC (centres unmarked) [Compound 16e, Diethyl [1-((4-methylphenyl)sulfonamido)-2-(p-tolylthio)allyl]phos-phonate] | 168 to 170 | 3.9 ± 0.63 | – | IC50 (in vitro): > 50 µM
